Measured values: US11851676B2, “Human neural precursor cells with inducible STIM1 knockdown” (NATIONAL CENTRE FOR BIOLOGICAL SCIENCES, priority 2018, dated 2023)

Key:
[1] = tested on: SOCE in human NPCs; assay: Thapsigargin-induced store release and SOCE Ca2+ imaging in human NPCs; format: cell-based; conditions: thapsigargin 10 μM store depletion, re-addition of 2 mM Ca2+; pharmacological inhibitors vs DMSO
Experimental: (A, B) Ca^2+-responses during ER-store release and SOCE induced by Thapsigargin (TG, 10 μM) measured using the ratiometric Ca^2+-indicator indo-1-AM in wild-type (WT) hNPCs (A) or hNPCs treated with pharmacological inhibitors of SOCE, BTP-2 and 2-APB at the indicated concentrations or DMSO as a solvent control (B). Each trace represents the mean+SEM for 25-100 cells. Ionomycin (Iono, 10 μM) was added at the end of each imaging to determine the peak F405/485 ratio obtained after saturation of the Ca′-indicator with Ca^2+ (C) Box plots quantifying the peak F405/485 values for store-release and SOCE in the indicated treatment conditions.
(Top) A representative Western blot showing levels of STIM1 protein in hNPCs transduced with an NTC (non-targeting control) or an sh-RNA targeting STIM1 (STIM1 KD). Actin serves as the loading control. […] (E) Ca^2+-responses during store-release and SOCE in hNPCs transduced with NTC and STIM1 KD. (F) Box plots quantifying the peak F405/485 values for store-release and SOCE in the indicated genotypes.

[2] = tested on: SVZ cells; conditions: pharmacological blockade of SOC, in vitro; cited from earlier work
[3] = tested on: SOCE in NPCs; conditions: embryonic and adult mouse NSCs/NPCs; cited from earlier work
[4] = tested on: SVZ cells; conditions: injection in brain lateral ventricle; cited from earlier work

| Compound | effect on SOCE in human NPCs [1] | effect on proliferation of SVZ cells [2] | effect on SOCE in mouse NPCs [3] | effect on SVZ cell proliferation in vivo [4] |
| --- | --- | --- | --- | --- |
| Cc1nnsc1C(=O)Nc1ccc(-n2nc(C(F)(F)F)cc2C(F)(F)F)cc1 [BTP-2] | significantly inhibited SOCE | decreases proliferation | blocked |  |
| COc1ccc(CCCOC(Cn2ccnc2)c2ccc(OC)cc2)cc1 (centres unmarked) [SKF-96365] |  | decreases proliferation |  | diminishes SVZ cell proliferation |
| [La+3] [La^3+] |  |  | blocked |  |
| NCCOB(c1ccccc1)c1ccccc1 [2-APB, 2-aminoethoxy-diphenyl borate] | significantly inhibited SOCE |  | blocked |  |
